Assay results: patent publication US9028845B2, “Chimeric immunomodulatory compounds and methods of using the same-IV” (Dynavax Technologies Corporation, priority 2001, dated 2015)

Tested on: human PBMCs
Experiment: Human PBMC cytokine response assay (IFN-γ and IFN-α in cell-free medium by ELISA), with or without cPLGA
Format: cell-based
[1] = Donor 5, 20 μg/ml (mixtures: 20 μg/ml total), 24 h
[2] = Donor 6, 20 μg/ml (mixtures: 20 μg/ml total), 24 h

With “5′-TGACTGTGAACGTTCGAGATGA-3′ (SEQ ID NO: 2) [Compound P-6, reference compound]” the “IFN-α (pg/ml) Donor 1” value (Donor 1, 20 μg/ml, 24 h) was 401 pg/mL, the “IFN-γ (pg/ml) Donor 1” value (Donor 1, 20 μg/ml, 24 h) was 2180 pg/mL and the “IFN-α (pg/ml) Donor 2” value (Donor 2, 20 μg/ml, 24 h) was 39 pg/mL. For the same substance, the “IFN-γ (pg/ml) Donor 2” value (Donor 2, 20 μg/ml, 24 h) was 669 pg/mL, the “IFN-α (pg/ml) Donor 3” value (Donor 3, 20 μg/ml, 24 h) was 28 pg/mL and the “IFN-γ (pg/ml) Donor 3” value (Donor 3, 20 μg/ml, 24 h) was 99 pg/mL. The “IFN-α (pg/ml) Donor 4” value (Donor 4, 20 μg/ml, 24 h) was 106 pg/mL, the “IFN-γ (pg/ml) Donor 4” value (Donor 4, 20 μg/ml, 24 h) was 223 pg/mL and the “IFN-α (pg/ml) Donor 5” value [1] was 54 pg/mL. For the same substance, the “IFN-γ (pg/ml) Donor 5” value [1] was 73 pg/mL, the “IFN-α (pg/ml) Donor 6” value [2] was 482 pg/mL and the “IFN-γ (pg/ml) Donor 6” value [2] was 1170 pg/mL. The “IFN-α (pg/ml) Donor 7” value (Donor 7, 20 μg/ml, 24 h) was 4 pg/mL, the “IFN-γ (pg/ml) Donor 7” value (Donor 7, 20 μg/ml, 24 h) was 15 pg/mL and the “IFN-α (pg/ml) Donor 8” value (Donor 8, 20 μg/ml, 24 h) was 59 pg/mL. The “IFN-γ (pg/ml) Donor 8” value (Donor 8, 20 μg/ml, 24 h) was 367 pg/mL, the “IFN-α Donor 9” value (Donor 9, 20 μg/ml, 24 h) was 12 and the “IFN-γ Donor 9” value (Donor 9, 20 μg/ml, 24 h) was 66. For the same substance, the “IFN-α Donor 10” value (Donor 10, 20 μg/ml, 24 h) was 28, the “IFN-γ Donor 10” value (Donor 10, 20 μg/ml, 24 h) was 20 and the “IFN-α Donor 11” value (Donor 11, 20 μg/ml, 24 h) was 12. For the same substance, the “IFN-γ Donor 11” value (Donor 11, 20 μg/ml, 24 h) was 72, the “IFN-α Donor 12” value (Donor 12, 20 μg/ml, 24 h) was 12 and the “IFN-γ Donor 12” value (Donor 12, 20 μg/ml, 24 h) was 23. For the same substance, the IFN-α (Example 58, 0.8 ug/ml, donor 1) was 52 pg/mL, the IFN-α (Example 58, 0.8 ug/ml, donor 2) was 52 pg/mL and the IFN-α (Example 58, 0.8 ug/ml, donor 3) was 52 pg/mL. The IFN-α (Example 58, 0.8 ug/ml, donor 4) was 52 pg/mL, the IFN-α mean (Example 58, 0.8 ug/ml, mean of four individuals) was 52 pg/mL and the IFN-α (Example 58, 4 ug/ml, donor 1) was 115 pg/mL. For the same substance, the IFN-α (Example 58, 4 ug/ml, donor 2) was 52 pg/mL, the IFN-α (Example 58, 4 ug/ml, donor 3) was 52 pg/mL and the IFN-α (Example 58, 4 ug/ml, donor 4) was 65 pg/mL. It also gave an IFN-α mean (Example 58, 4 ug/ml, mean of four individuals) of 71 pg/mL, an IFN-α (Example 58, 20 ug/ml, donor 1) of 116 pg/mL and an IFN-α (Example 58, 20 ug/ml, donor 2) of 64 pg/mL. It also gave an IFN-α (Example 58, 20 ug/ml, donor 3) of 52 pg/mL, an IFN-α (Example 58, 20 ug/ml, donor 4) of 52 pg/mL and an IFN-α mean (Example 58, 20 ug/ml, mean of four individuals) of 71 pg/mL. The IFN-α (Example 59, 0.8 ug/ml, donor 48) was 102 pg/mL, the IFN-α (Example 59, 0.8 ug/ml, donor 177) was 102 pg/mL and the IFN-α (Example 59, 0.8 ug/ml, donor 272) was 102 pg/mL. It also gave an IFN-α (Example 59, 0.8 ug/ml, donor 273) of 102 pg/mL, an IFN-α mean (Example 59, 0.8 ug/ml, mean of four donors) of 102 pg/mL and an IFN-α (Example 59, 4 ug/ml, donor 48) of 102 pg/mL. It also gave an IFN-α (Example 59, 4 ug/ml, donor 177) of 245 pg/mL, an IFN-α (Example 59, 4 ug/ml, donor 272) of 102 pg/mL and an IFN-α (Example 59, 4 ug/ml, donor 273) of 102 pg/mL. For the same substance, the IFN-α mean (Example 59, 4 ug/ml, mean of four donors) was 138 pg/mL, the IFN-α (Example 59, 20 ug/ml, donor 48) was 256 pg/mL and the IFN-α (Example 59, 20 ug/ml, donor 177) was 323 pg/mL. For the same substance, the IFN-α (Example 59, 20 ug/ml, donor 272) was 102 pg/mL, the IFN-α (Example 59, 20 ug/ml, donor 273) was 102 pg/mL and the IFN-α mean (Example 59, 20 ug/ml, mean of four donors) was 196 pg/mL. The IFN-α (Table 9, donor 28089) was 0 pg/mL, the IFN-γ (Table 9, donor 28089) was 84 pg/mL and the IFN-α (Table 9, donor 28090) was 62 pg/mL. The IFN-γ (Table 9, donor 28090) was 255 pg/mL, the IFN-α (Table 9, donor 28098) was 105 pg/mL and the IFN-γ (Table 9, donor 28098) was 745 pg/mL. The IFN-α (Table 9, donor 28099) was 105 pg/mL, the IFN-γ (Table 9, donor 28099) was 125 pg/mL and the IFN-α mean (Table 9, mean of donors) was 68 pg/mL. For the same substance, the IFN-γ mean (Table 9, mean of donors) was 302 pg/mL, the IFN-α (Table 10, donor 28042) was 27 pg/mL and the IFN-γ (Table 10, donor 28042) was 495 pg/mL. The IFN-α (Table 10, donor 28043) was 85 pg/mL, the IFN-γ (Table 10, donor 28043) was 1189 pg/mL and the IFN-α (Table 10, donor 28044) was 36 pg/mL. The IFN-γ (Table 10, donor 28044) was 925 pg/mL, the IFN-α (Table 10, donor 28045) was 21 pg/mL and the IFN-γ (Table 10, donor 28045) was 212 pg/mL. For the same substance, the IFN-α mean (Table 10, mean of donors) was 42 pg/mL, the IFN-γ mean (Table 10, mean of donors) was 705 pg/mL and the IFN-α (Table 11, donor 28042) was 9 pg/mL. For the same substance, the IFN-γ (Table 11, donor 28042) was 324 pg/mL, the IFN-α (Table 11, donor 28043) was 34 pg/mL and the IFN-γ (Table 11, donor 28043) was 1036 pg/mL. The IFN-α (Table 11, donor 28044) was 22 pg/mL, the IFN-γ (Table 11, donor 28044) was 529 pg/mL and the IFN-γ (Table 11, donor 28045) was 653 pg/mL. It also gave an IFN-α mean (Table 11, mean of donors) of 43 pg/mL, an IFN-γ mean (Table 11, mean of donors) of 636 pg/mL and an IFN-α (Table 13, donor 28156) of 52 pg/mL. For the same substance, the IFN-γ (Table 13, donor 28156) was 1132 pg/mL, the IFN-α (Table 13, donor 28157) was 484 pg/mL and the IFN-γ (Table 13, donor 28157) was 872 pg/mL.
